Assay: Half life was determined
Format: ADME
Settings: rat

half-life: 50 min
SMILES: N#Cc1ccc(NCCNCC(=O)N2CCC[C@H]2C#N)nc1
